Measurements as given in publication PMC12102733, “The mycotoxin Beauvericin is an uncompetitive inhibitor of Cathepsin B” (Protein Science : A Publication of the Protein Society, 2025).

What was measured:
[1] = Solubility in aqueous buffers; type: physicochemical; details: 0.1% (v/v) Tween 20 used to increase solubility
Protocol: NMR experiments were performed at 298 K on Bruker Avance III HD spectrometers operating at 750 MHz, equipped with 5 mm triple resonance TCI (^1H, ^13C, ^15N) cryoprobes and shielded z‐gradients. BEA compound was purchased (Item No. 11426) from Cayman Chemical, Ann Arbor, Michigan, USA, and recombinant human CTSB (6His tag at the C‐terminus) was purchased (Item No. 153921.10) from Biomol GmbH, Hamburg, Germany. Both CTSB and BEA were used without any further purifications. The purity of the compound (>95%) was checked by 1D ^1H NMR of 250 μM BEA compound measured (256 scans) in 90% (v/v) DMSOd6 (Figure 2a). […] To perform STD‐NMR experiments, 5 μM of CTSB and 250 μM BEA were prepared in 25 mM oxalic acid/sodium oxalate, 5% (v/v) DMSOd6, pH 5.0, 10% (v/v) D2O, and 0.1% (v/v) Tween 20. The STD‐NMR spectra were acquired with 4928 scans, and the subtraction of the reference spectrum was performed internally via phase cycling after every scan to obtain the STD effect. […] There was no compound signal detected below 0 ppm. […] The STD intensity of the aromatic proton STD effect was set to 100% as a reference, and the relative intensities were determined (Mayer and Meyer [2001]). […] Data was processed and analyzed with TopSpin 3.2 (Bruker BioSpin). […]

human CTSB = target: T1, human CTSB (Homo sapiens, UniProt P07858); assay: Enzyme kinetics of recombinant human CTSB in the presence of BEA; type: biochemical; details: uncompetitive; approximated from closest neighbor intersection point of [S]/v vs. [I] plot; Z-Leu-Arg AMC substrate, BEA 0-25 μM, 25 mM MES pH 5, 26°C; read-out: K i (estimated)
T1 construct: purchased R&D Biosystems 953‐CY
Protocol: Recombinant human CTSB (R&D Biosystems, Cat# 953‐CY) was activated in a solution of 25 mM MES pH 5 and 5 mM DTT at a protein concentration of 25 μg/mL, as indicated by the manufacturer. The activation was carried out by incubating the solution in a thermal bath at 26°C for 30 min and then diluting it to a concentration of 0.2 μg/mL in a 25 mM MES buffer pH 5. Complete conversion of Procathepsin B into its cleaved form by activation was verified by SDS‐PAGE (Figure S1, Supporting Information).
Reactions were carried out in a 96‐well black microplate (Greiner Bio‐One, Cat# 675086) in a final volume of 100 μL, using 20 ng of enzyme with increasing concentrations of the fluorogenic substrate Z‐Leu‐Arg AMC (R&D Biosystems, Cat# ES008) (from 0 to 200 μM) and BEA (from 0 to 25 μM).
Progress curves were measured using a TECAN infinite M plex microplate reader with an excitation wavelength of 380 nm and an emission wavelength of 460 nm. All the components, except the enzyme, were loaded onto the plate and were left to reach a temperature of 26°C. Protein samples were loaded using a multichannel pipette. Plates were shaken using a pulse of 3.5 s with an amplitude of 4.5 mm. Data was collected for a total of 1400 s with a reading interval of 45 s.
Reaction rates were calculated from the progress curves using linear regression. […]

CC(C)[C@H]1OC(=O)[C@H](Cc2ccccc2)N(C)C(=O)[C@@H](C(C)C)OC(=O)[C@H](Cc2ccccc2)N(C)C(=O)[C@@H](C(C)C)OC(=O)[C@H](Cc2ccccc2)N(C)C1=O [BEA, Beauvericin]
solubility in aqueous buffers [1]: sparingly soluble in aqueous buffers
Ki (human CTSB): ~44.3 µM
